The record followed here is article PMC12299847, “Macroalgae-Inspired Brominated Chalcones as Cosmetic Ingredients with the Potential to Target Skin Inflammaging” (Marine Drugs, 2025).

One assay has as its system HaCaT keratinocytes. The experiment in a line: Resazurin cell viability assay in HaCaT keratinocytes. Type of assay: cell-based, human. The settings on record: HaCaT, 24 h, significant effects only at 62.5 μM and 125 μM. How it is done:
To evaluate the effects of chalcones 1–7 on cell viability after 24 h, a resazurin assay was performed using two cell lines: human HaCaT keratinocytes (HaCaT, CLS 300493), representing the epidermal layer, and murine RAW 264.7 macrophages (RAW 264.7, ATCC TIB-71), which model immune cells involved in dermal inflammatory responses. For the keratinocyte cell line, all seven brominated and non-brominated chalcones were tested across a concentration range from 2.5 μM to 125 μM (Figure 2).
Human keratinocytes (HaCaT, CLS 300493, Eppelheim, Germany) were cultured in DMEM supplemented with heat-inactivated FBS, and a penicillin and streptomycin antibiotic solution. The cell culture of keratinocytes was washed with 6 mL of phosphate buffer solution with 0.05% EDTA (Sigma-Aldrich, St. Louis, MO, USA) and detached using 3 mL of 0.05% trypsin + 0.02% EDTA in PBS solution when the cells reached 70–80% confluence in cell culture flasks. DMEM was also used to cultivate the mouse macrophage cell line (RAW 264.7, ATCC TIB-71, Manassas, VA, USA) together with 10% (v/v) non-inactivated FBS, 1.5 g/L sodium bicarbonate, and 100 U/mL penicillin and 100 μg/mL streptomycin stock (antibiotic solution). The macrophage culture was mechanically detached using a cell scraper, and the final amount of DMEM media with the cells was sub-cultured in a 1:10 ratio to the cellular suspension.
The resazurin reduction assay was employed to evaluate the metabolic activity of human epidermal keratinocyte (HaCaT) and murine macrophage (RAW264.7) cell lines, as outlined in a previous study. In brief, HaCaT cells (1.0 × 10^5 cells/mL) and RAW264.7 cells (5.0 × 10^4 cells/mL) were seeded in 96-well plates (200 μL/well) and incubated overnight at 37 °C to allow for cell attachment. Following this, the cells were treated with different concentrations of the test compounds and kept at 37 °C for 24 h. After 20 h, resazurin (500 μM in sterile phosphate buffer solution, pH 7.4) was added to each well to achieve a final concentration of 50 μM, followed by an additional incubation of 4 h. Absorbance was then measured at wavelengths of 570 and 620 nm using a SpectraMax Plus 384 absorbance microplate spectrophotometer (Molecular Devices, San Jose, CA, USA). Each experiment was conducted in triplicate, with a minimum of three independent assays. The results were graphically presented as the percentage of cell viability versus chemical concentration, relative to the control.
Figure 2 Cytotoxicity of chalcones 1–7 using a resazurin reduction assay in HaCaT cells by comparison with the control. Bar graphs represent the mean ± SEM of at least three independent experiments performed in triplicate. Statistical analysis: one ANOVA with Dunnett’s multiple comparisons test, where p < 0.05 was considered significant when compared to the control condition. * p < 0.05, ** p < 0.01, and *** p < 0.0005.

Assay [1] can be described thus: NO scavenging potential (SNAP assay). It counts as biochemical. Particulars: SNAP 300 μM, 3 h; compounds 100 μM (methods) or 7.5 μM (Figure 5). As for the experimental part: The SNAP (S-nitroso-N-acetylpenicillamine) assay is a well-established method for assessing the NO scavenging capacity of compounds, offering valuable insights into their potential direct antioxidant and anti-inflammatory properties. In this study, chalcones 1–7 were tested for their ability to capture NO radicals induced by the presence of SNAP at a concentration of 300 μM (Figure 5). […] Instead, these compounds could potentially exert their effects via alternative mechanisms, such as the modulation of iNOS activity or by targeting upstream targets in the inflammatory cascade, such as by the suppression of NF-κB activation, and/or Nrf2 activation, which will deplete co-activators from the iNOS enzyme, thereby reducing iNOS transcription and, consequently, iNOS protein levels and NO production.
The ability to scavenge NO was assessed using S-nitroso-N-acetyl-D/L-penicillamine (SNAP) as a source of NO. The production of NO was quantified using the Griess reaction, following a previously described method. […] Absorbance at 550 nm was then measured using a Biotek Synergy HT plate reader (Biotek, CA, USA). The nitrite concentration in the supernatants was determined by comparing the absorbance of each sample to a sodium nitrite standard curve. […]

Molecules are shown by their SMILES. Bounds are passed on as bounds.

On to `COc1cc(Br)c(/C=C/C(=O)c2cc(OC)c(OC)cc2Br)cc1OC` [Chalcone 1], for which, in the assay with HaCaT keratinocytes, the “maximal reduction in viability” value is listed as ≤ 25%. In addition, the NO scavenging activity entry in assay [1] is listed as “No direct NO scavenging action”.
